Consider four compounds from patent US12419308B2, “Phenylpyrazole insecticide compounds and compositions” (priority 2023, dated 2025).

Data set [1] is described as follows: Egg concentration analysis from topically treated chickens. The format is in vivo. The conditions noted are these: in vivo. The protocol: One animal is left untreated as a negative control.
A modified and optimized QuEChERS protocol was employed to extract the compounds from eggs. The shell is manually removed, and then each egg is transferred to a clean beaker and homogenized with an electric mixer for small volumes. 5 grams of homogenized egg is put into a 50 mL Falcon tube, and 5 mL of water is added and the samples are shaken for 10 minutes. Next, 10 mL of acetonitrile is added and the samples are shaken again for 10 minutes. Then the roQ salts (4.0 g MgSO4, 1.0 g NaCl, 1.0 SCTD and 0.5 g SCDS, Phenomenex P/N KS08909) are added to each sample, and the mixture is well shaken for 10 minutes. Samples are then centrifuged at 2500 g for 5 minutes at room temperature, and the supernatant is transferred to an HPLC vial for analysis. The same HPLC-MS method is used as described above.
One egg from two chickens is analyzed: one chicken treated with Fipronil and one chicken treated with the Compound of Example 1. The eggs are both from Day 5. The results are shown in the following tables expressed as relative LC-MS peak area: […]

In data set [2] the test system is adult worker honeybees, Apis mellifera L. Particulars: contact. The source says:
In accordance with OECD Test Guidelines No. 213 and 214, the test is considered valid if: (1) the average mortality of the control groups is ≤10% at the end of the test; and the average, control-corrected mortality of the reference item groups is ≥50% at the end of the test, at the tested dose (internal validity criteria according to POS BT200).
Young Apis mellifera L. worker honeybees are randomly collected in the morning of use or the day before from an adequately fed, healthy diseases-free and queen right beehive, not treated with chemical substances. Hives from an established apiary colony are used, and the colonies are inspected periodically, according to standard bee-keeping practices. All colonies are kept outside under field conditions and bees collect food from the environment. The last treatment against Varroa mites was done in November 2023. The bees are fed ad libitum with a water sucrose solution 50% w/v (or 500 g/L), prepared with tap water.
Adult worker honeybees are exposed to three increasing doses of the test item (see Table 2) by direct application to the thorax (droplets, see section 4.5.2). One control group is treated with propanol-water solution (ratio 80%-20%) in addition to test item groups.
Bee mortality is recorded after 4, 24 and 48 hours, and compared with the control value. If the mortality rate increases by more than 10% between 24 and 48 hours, whilst the control mortality rate remains ≤10%, the is extended to a maximum of 96 hours.
The test item is diluted in propanol-water solution (ratio 80%-20%) to prepare the contact solutions.
The bees used for the contact test are anaesthetized with carbon dioxide and individually treated by topical application of 2 μL of the test solutions onto the thorax using a micro applicator. The honeybees are then be moved to the cages and fed ad libitum with sucrose solution.
Disposable and well-ventilated cages with an internal volume not lower than 200 cm^3 are used. Each cage is equipped with a transparent lid, for a suitable observation of the bees from outside. The upper side of the cage has at least one hole for inserting the feeder: a syringe filled of 50% (w/v) aqueous sucrose solution is inserted in one hole.
The tests are conducted under the following conditions: (a) Temperature: 25.00[…]; (b) Relative humidity: 60.00[…], The honeybees are kept under constant darkness except during the assessments. Throughout the experimental phase, the temperature and relative humidity is continuously recorded with a dedicated data-logger with sensors located close to the test units.
The number of dead honeybees per cage is recorded after 4, 24 and 48 hours. If a prolonged observation period is required, further assessments are made every 24 hours, tip to a maximum duration of 96 hours. The amount of diet consumed per group is quantitatively estimated if treated diet will be left after 6 hours of exposure.
Data is summarized in tabular form, showing the number of live, dead and abnormal bees per experimental group. The mortality of each replicate is calculated as a percentage, comparing the number of dead bees to those introduced at the beginning. The mean value of the treated group is compared to the mean mortality of the respective control group(s) using the Abbott's formula modified by Schneider-Orelli (POS BT 200): […]

Data set [3] has the same test system. In words: Acute oral toxicity test in honeybees (OECD 213). The format is in vivo. As to the method:
Untreated 50% w/v sucrose solution with 0.2% of propanol-water solution (ratio 80%-20%) is used as a negative control.
The test item is diluted with aqueous sucrose solution 50% (w/v) to prepare the oral solutions. The bees used for the oral test are anesthetized with carbon dioxide for the time necessary to immobilize them and placed inside the test cages; 2 hours before the treatment they are starved. A volume of 200 μL (20 μL/bee) of treated diet is administered to each cage with a dispenser (e.g., a syringe without tip), weighed before and after filling.
The overall exposure period is 6 hours, during which consumption is monitored: the feeder is changed at the end of the six hours or once the treated diet has been consumed (usually within 3-4 hours). In both cases, the feeder is weighed and a new feeder with untreated 50% (w/v) sucrose solution is provided ad libitum, and the mean effective dose is calculated based on the actual consumption.

The next data set has as its system Dermanyssus gallinae. In words: Antiparasitic efficacy on live chickens with natural mite infestation. Particulars: by day 5 of treatment; 0.25% (w/v) spray, 7.5 mg/kg once daily for 5 days. It counts as in vivo. The protocol:
Two animals are treated with the compound of Example 1, and two animals are treated with Fipronil, while one animal is left untreated as a negative control. The infestation by D. gallinae is monitored by checking the density of mites in particular areas of the animal's bodies (feet, legs, and wings), comparing pre-treatment levels of infestation to post-treatment levels.
When all pests have been eliminated, a 100% pest control capability was achieved. In the case of some chemical products, when the pest was not fully eliminated, the disinfestation capacity was measured by averaging the number of infesting organisms located in three distinct areas of the treated animals, at the beginning of the treatment, and at the end of the treatment.

In data set [4] the test system is Human Cryopreserved Hepatocytes. In words: Metabolic stability in human cryopreserved hepatocytes. The format is in vitro ADME. As to the method: The metabolic stability of the Compounds of Examples 1 and 4 is therefore evaluated to determine whether metabolic degradation results in metabolites of concern.
Briefly, Human Cryopreserved Hepatocytes (Gibco, lot. HUE125) are added to incubation wells in a 96-well assay plate at a density of 500,000 cells/mL in William's E Medium. […] The wells are incubated at 37° C. and stop solution is added to wells at time points: 0, 30, 60, 120, 240 min. The stop solution is ice-cold solution containing 0.5 μM labetalol in acetonitrile (100 μL/well) (2:1, vol/vol). Each time point is tested in triplicate. Analysis is carried out by LC-MS.
• Instrument: QExactive • Column: Luna Omega 1.6 μm polar C18 100 Å (150×2.1 mm) • Column temperature: 40° C. • Column No: 102+pre-column installed • Injection volume: 2 μl • Flux: 0.40 mL/min • Polarity: Negative • Fluent A: water Milli Q+0.1% FA • Fluent B: ACN+0.1% FA • Acquisition method: Full MS+DDS on the IL obtained with MassMetaSite (peak others ON).

The structures appear in SMILES notation. Read-outs that look alike come from different tables or passages of the source.

Regarding `N#Cc1nn(-c2c(Cl)cc(C(F)(F)F)cc2Cl)c(N)c1S(=O)(=O)C(F)(F)F` [Fipronil Sulfone, Fipronil sulfone], the “Relative LC-MS peak area of analyte in egg” value (“Relative LC-MS peak area” for short) in data set [1] (chicken, 5 days) is given as 5.6.

On to `NC(=O)c1nn(-c2c(Cl)cc(C(F)(F)F)cc2Cl)c(N)c1[S+]([O-])C(F)(F)F` (stereo not drawn) [Fipronil Amide, Fipronil amide], for which the “Relative LC-MS peak area” value in data set [1] stood at 3.8.

With `N#Cc1nn(-c2c(Cl)cc(C(F)(F)F)cc2Cl)c(N)c1[S+]([O-])C(F)(F)F` (stereo not drawn) [Fipronil, reference compound], the “% CM (4 hours)” value in data set [2] (group T1, dose 0.002 μg/bee) came out at 0.0%; in data set [2] (group T2, dose 0.004 μg/bee) it was 0.0%; in data set [2] (group T3, dose 0.006 μg/bee), 0.0%; in data set [3] (group T1, dose 0.002 μg/bee), 0.0%; in data set [3] (group T2, dose 0.004 μg/bee), 0.0%; in data set [3] (group T3, dose 0.006 μg/bee), 3.3%. The “% CM (24 hours)” value in data set [2] (group T1, dose 0.002 μg/bee) stood at 7.1%; in data set [2] (group T2, dose 0.004 μg/bee) it was 25.0%; in data set [2] (group T3, dose 0.006 μg/bee), 71.4%; in data set [3] (group T1, dose 0.002 μg/bee), 20.8%; in data set [3] (group T2, dose 0.004 μg/bee), 37.5%; in data set [3] (group T3, dose 0.006 μg/bee), 58.3%. Further, the “% CM (48 hours)” value came out at 7.7% in data set [2] (group T1, dose 0.002 μg/bee); 30.8% in data set [2] (group T2, dose 0.004 μg/bee); 76.9% in data set [2] (group T3, dose 0.006 μg/bee); 23.8% in data set [3] (group T1, dose 0.002 μg/bee); 33.3% in data set [3] (group T2, dose 0.004 μg/bee); 66.7% in data set [3] (group T3, dose 0.006 μg/bee). For the same compound, the “Relative LC-MS peak area” value in data set [1] (chicken, 5 days) is 4.8. Moreover, the “Chickens free of mites” value with Dermanyssus gallinae stood at 100%.

For `N#Cc1nn(-c2c(Cl)cc(C(F)(F)F)cc2Cl)c2nc(O)cc(C(F)F)c12` [Example 4, 1-(2,6-dichloro-4-(trifluoromethyl)phenyl)-4-(difluoromethyl)-6-hydroxy-1H-pyrazolo[3,4-b]pyridine-3-carbonitrile], the “Original compound still present” value in data set [4] (after 240 minutes, 1 μM, 500,000 cells/mL, 37° C.) is listed as “approximately 84.2%”. Also, the “Metabolic stability (in words)” value in data set [4] (human hepatocytes, up to 240 min, 1 μM) was “highly metabolically stable”.
